The OPERA property sets (Mansouri et al. 2018)
Values after ≈ are worked out from the molar mass of the structure shown. Where a SMILES comes first, the peptide text is derived from it.

Conditions: not given

In order of rising logP:
1. NC(=O)CC[C@H](N)C(=O)O  -3.64
2. CN1C(=O)C(O)CC1c1cccnc1 (configuration not stated)  -1.45
3. CC(=O)Nc1ncc2ncn(COCCO)c2n1  -1.33
4. CC(=O)N[C@H](C(=O)N[C@@H](C)C(N)=O)C(C)C (Ac-Val-Ala-NH2)  -1.14
5. O=C1CCC(c2ccc[n+]([O-])c2)N1 (configuration not stated)  -1.01
6. Nc1ncnc2c1nc(Sc1ccc(Cl)cc1)n2C1OC2COP(=O)(O)OC2C1O (configuration not stated)  -0.98
7. N#CCC#N  -0.6
8. CCn1cc(C(=O)O)c(=O)c2cc(F)c(N3CCNCC3)c(F)c21  -0.57
9. CCOCCOCCO  -0.54
10. CN(C)C(N)=S  -0.43
11. Nc1cc(Cl)c(S(N)(=O)=O)cc1S(N)(=O)=O  -0.41
12. CC=O  -0.34
13. C=COCCn1cnc2c(=N)n(C)c(=O)[nH]c21  -0.24
14. OC(CNC1COCCC1Br)Cn1ccnc1 (configuration not stated)  -0.17
15. COC1=CC(=O)C=CC1=O  -0.06
16. N#CCCCCCC#N  0.05
17. CCCCc1ccc(NC(=O)CN(CC(=O)O)CC(=O)O)cc1Br  0.1
18. Cc1cc(C)nc(NS(=O)(=O)c2ccc(N)cc2)n1  0.19
19. O=[N+]([O-])c1nc[nH]c1I  0.28
20. COCCNCc1cc2cc(S(N)(=O)=O)sc2s1  0.32
21. C[C@H](CS)C(=O)N1CCC[C@H]1C(=O)O  0.34
22. CNC(=O)NCCn1nc(-c2ccccc2)ccc1=O  0.39
23. C=CC(=O)OCCOC  0.56
24. OCCCNc1ccccc1  0.57
25. Brc1ccc(O[Si]23OCCN(CCO2)CCO3)cc1  0.58
26. Nc1ccc2[nH]ncc2c1  0.65
27. CC(O)(C(=O)O)c1ccccc1 (configuration not stated)  0.8
28. CCC(=O)OC  0.84
29. COc1c(O)cc(C)c(O)c1OC  1.05
30. COc1ccc(Cn2cncn2)cc1  1.1
31. CC(C)(C#N)/N=N/C(C)(C)C#N  1.1
32. OCc1c(F)cccc1F  1.12
33. CNC(=O)CCc1c[nH]c2ccccc12  1.23
34. CN1CC=C(c2ccncc2)CC1  1.25
35. CC(=O)N[C@@H](Cc1ccc(O)cc1)C(=O)O  1.32
36. N#Cc1cc(-c2ccncc2)cnc1NCCCO  1.42
37. O=C(Nc1ccccc1)n1cc(F)c(=O)[nH]c1=O  1.5
38. NC(=S)NN=Cc1ccc([N+](=O)[O-])o1  1.64
39. NC(=S)Nc1cccc2ccccc12  1.65
40. COc1ccc(C#N)cc1  1.7
41. CCN(CC)CCNC(=O)c1ccc(N)c(Cl)c1  1.7
42. N#CCCCCCCCCC#N  1.75
43. COc1ccc2sc(C(=O)Nc3nnn[nH]3)c(OC(C)C)c2c1  1.78
44. CC(C)C1(C)N=C(c2nc3ccccc3cc2C(=O)O)NC1=O (configuration not stated)  1.86
45. NS(=O)(=O)c1nn2c(=Nc3ccc(O)cc3)snc2s1  1.89
46. N=C(N)NN=C(c1ccccc1)c1cccs1  1.96
47. Cc1c(CNc2ccc(Cl)cc2)cnc2nc(N)nc(N)c12  2.03
48. CCCCC(C)=NNC(N)=Nc1ccccc1  2.05
49. CCOC1OC2OC3(C)CCC4C(CO)CCC(C1C)C24OO3 (configuration not stated)  2.08
50. CCOC(=O)CCn1nc2ccccc2n1  2.12
51. ClCCCBr  2.18
52. C=C(Br)CC1(C(C)CC)C(=O)NC(=O)NC1=O (configuration not stated)  2.2
53. CC(=O)OCN1C(=O)NC(c2ccccc2)(c2ccccc2)C1=O  2.23
54. O=C(OCc1ccccc1)c1cccnc1  2.4
55. CC(CCl)OC(C)CCl (configuration not stated)  2.48
56. Cc1cccc2[nH]ccc12  2.54
57. OCc1cccc(I)c1  2.55
58. CN(C(=O)C(Cl)Cl)c1ccc(OC(=O)c2ccccc2)cc1  2.56
59. CCN=c1nc(Cl)[nH]c(=NC(C)CC)[nH]1 (configuration not stated)  2.61
60. CCCCNC(=S)NCCCC  2.75
61. CC(C)(C)c1ccc2oc(N(N)CCC#N)nc2c1  2.82
62. Cc1cccc([N+](=O)[O-])c1C  2.83
63. CCCCCCC(C)O (configuration not stated)  2.9
64. Cc1ccc(S(=O)(=O)N(C)C(=O)c2ccccc2)cc1  2.95
65. N#Cc1c(Cl)c(Cl)c(Cl)c(C#N)c1Cl  3.05
66. CCNc1nc(NC(C)(C)C)nc(OC)n1  3.1
67. N#Cc1cccc(N=C=S)c1  3.13
68. Cc1cc(Cl)ccc1OCC(=O)O  3.25
69. COC(=O)C1=C(C)NC(C)=C(C(=O)OCC(C)C)C1c1ccccc1[N+](=O)[O-] (configuration not stated)  3.26
70. CCCC(=O)OCN1C(=O)NC(c2ccccc2)(c2ccccc2)C1=O  3.34
71. O=[N+]([O-])c1ccc2c(c1)Cc1cc([N+](=O)[O-])ccc1-2  3.35
72. CCC(O)(C(=O)O)c1ccc(CC(C)C)cc1 (configuration not stated)  3.37
73. CCCCCCOC(=O)c1cccnc1  3.51
74. CCCCC(=O)OCC1OC(n2cnc3c(OC)ncnc32)C(OC(=O)CCCC)C1O (configuration not stated)  3.58
75. O=C1c2ccccc2C(=O)N1SC1CCCCC1  3.66
76. O=C(O)c1ccc(-c2ccccc2)cc1  3.75
77. CCCCCCCCC1(CC)C(=O)NC(=O)NC1=O  3.78
78. CCCCC(=O)OCN1C(=O)NC(c2ccccc2)(c2ccccc2)C1=O  3.9
79. CN(C)c1ccc(N=C=S)cc1  3.96
80. Oc1cccc(-c2ccccc2O)c1  4.06
81. CCCCC(NC(Cc1ccccc1)C(=O)N1CCC(OCOC)CC1)C(=O)NC(CC1CCCCC1)C(O)CC(C(=O)NCCNc1n[nH]c(N)n1)C(C)C (configuration not stated)  4.2
82. Cc1cc(OCCNCC2CC(=O)c3ccccc3C2=O)c(C(C)C)cc1O (configuration not stated)  4.25
83. CC(C)(C)C1=CC(=O)C=C(C(C)(C)C)C1=O  4.42
84. COc1cc(N=Nc2c(Br)cc([N+](=O)[O-])cc2[N+](=O)[O-])c(NC(C)=O)c(N(CCOC(C)=O)CCOC(C)=O)c1  4.44
85. NCCCN1c2ccccc2Sc2ccc(Cl)cc21  4.47
86. CCCCOC(=O)c1ccccc1C(=O)OCCCC  4.5
87. Clc1ccc2ccc(Cl)cc2c1  4.81
88. ClC1(Cl)CC1(c1ccccc1)c1ccccc1  4.88
89. Cc1ccc2ccc3ccccc3c2c1  5.15
90. COC(=O)C1=C(C)NC(C)=C(C(=O)OCCN2CCN(C(c3ccccc3)c3ccccc3)CC2)C1c1cccc([N+](=O)[O-])c1 (configuration not stated)  5.2
91. Nc1c(OC2C=CC(N3CCCCCC3=O)=CC2)cc(O)c2c1C(=O)c1ccccc1C2=O (configuration not stated)  5.3
92. CCCCCCCc1ccccc1  5.37
93. OCCC(F)(F)C(F)(F)C(F)(F)C(F)(F)C(F)(F)C(F)(F)C(F)(F)C(F)(F)F  5.58
94. Clc1cc2c(Cl)cccc2c(Cl)c1Cl  5.77
95. c1ccc2c(c1)Cc1cc3ccccc3cc1-2  5.77
96. Brc1cc2oc3cc(Br)c(Br)cc3c2cc1Br  6.1
97. c1ccc2c(c1)cc1ccc3cccc4ccc2c1c34  6.13
98. ClC1=C(Cl)C2(Cl)C3C(Cl)C(Cl)(Cl)CC3C1(Cl)C2(Cl)Cl (configuration not stated)  6.2
99. N=c1cc2n(-c3ccc(Cl)cc3)c3ccccc3nc-2cc1Nc1ccc(Cl)cc1  6.47
100. Clc1cccc2c1Oc1c(Cl)c(Cl)c(Cl)c(Cl)c1O2  6.5
101. ClC1(Cl)C2(Cl)C3(Cl)C4(Cl)C(Cl)(Cl)C5(Cl)C3(Cl)C1(Cl)C5(Cl)C24Cl (configuration not stated)  6.89
102. Clc1cc(Cl)c(-c2ccc(Cl)c(Cl)c2Cl)cc1Cl  7.44
103. Clc1cc2c(Cl)c(Cl)c(Cl)c(Cl)c2c(Cl)c1Cl  8.2

In order of falling solubility:
1. OCC(S)CS (configuration not stated)  700 mM (≈ 87 mg/mL)
2. O=P1(N(CCCl)CCCl)NCCCO1 (configuration not stated)  153 mM (≈ 40 mg/mL)
3. C1=CCC=C1  27.2 mM (≈ 1.8 mg/mL)
4. Brc1cc2oc3cc(Br)c(Br)cc3c2cc1Br  0.000145 mM (≈ 7e-05 mg/mL)

Same assay, conditions: 20 °C

In the case of Clc1cccc2c1Oc1c(Cl)c(Cl)c(Cl)c(Cl)c1O2, the solubility is reported as 3.37e-07 mM (≈ 1.2e-07 mg/mL).

Same assay, conditions: 23 °C

In order of falling solubility:
1. CN(N=O)C(N)=O  140 mM (≈ 14.4 mg/mL)
2. CCOP(=S)(Oc1ccc([N+](=O)[O-])cc1)c1ccccc1 (configuration not stated)  0.00962 mM (≈ 0.00311 mg/mL)

Same assay, conditions: 23.0 °C

In order of falling log10 OH rate constant (cm³/molecule/s):
1. CCOCCOCCO  -10.2
2. CCCCOCC(C)O (configuration not stated)  -10.4
3. c1ccc2c(c1)OCCO2  -10.6

Same assay, conditions: 24.0 °C

In the case of Clc1cc(Cl)cc(-c2ccccc2)c1, the log10 OH rate constant (cm³/molecule/s) is reported as -11.4.

Same assay, conditions: 25 °C

In order of rising solubility:
1. c1ccc2c(c1)cc1ccc3cccc4ccc2c1c34  6.42e-06 mM (≈ 1.62e-06 mg/mL)
2. CCCCCCCCCCCCCCCCCO  3.12e-05 mM (≈ 8e-06 mg/mL)
3. Clc1cc(Cl)c(-c2ccccc2Cl)cc1Cl  5.62e-05 mM (≈ 1.64e-05 mg/mL)
4. Brc1cc(Br)c(Br)cc1Br  0.000102 mM (≈ 4e-05 mg/mL)
5. CCCCCCCCOP(=O)(Oc1ccccc1)Oc1ccccc1  0.000386 mM (≈ 0.00014 mg/mL)
6. Clc1ccc(-c2ccccc2Cl)cc1  0.00524 mM (≈ 0.00117 mg/mL)
7. CCCCC(CC)COP(=O)(Oc1ccccc1)Oc1ccccc1 (configuration not stated)  0.00524 mM (≈ 0.0019 mg/mL)
8. O=C1c2ccccc2C(=O)c2c(O)c(O)cc(O)c21  0.025 mM (≈ 0.0064 mg/mL)
9. CC(=O)OCC(=O)[C@@]1(O)CC[C@H]2[C@@H]3CCC4=CC(=O)C=C[C@]4(C)[C@H]3[C@@H](O)C[C@@]21C  0.0427 mM (≈ 0.0172 mg/mL)
10. CCCOC(=O)COc1ccc(Cl)cc1Cl  0.0562 mM (≈ 0.0148 mg/mL)
11. NS(=O)(=O)c1cc2c(s1)SCCC2=O  0.281 mM (≈ 0.07 mg/mL)
12. CC(C)(C#N)/N=N/C(C)(C)C#N  2.13 mM (≈ 0.35 mg/mL)
13. ClCc1ccccc1  4.15 mM (≈ 0.525 mg/mL)
14. C#Cc1ccccc1  4.46 mM (≈ 0.456 mg/mL)
15. CN(C)c1ccccc1  12 mM (≈ 1.45 mg/mL)
16. Oc1nc(O)nc(O)n1  15.5 mM (≈ 2 mg/mL)
17. O=C(O)CCC1CCCC1  17 mM (≈ 2.42 mg/mL)
18. O=C(O)CC1CCCCC1  20.3 mM (≈ 2.88 mg/mL)
19. O=C(O)C1CCCCC1  35.9 mM (≈ 4.6 mg/mL)
20. Oc1ccc(Cl)c(Cl)c1  56.8 mM (≈ 9.26 mg/mL)
21. CN(C)c1ccc(N=NS(=O)(=O)[O-])cc1.[Na+]  79.6 mM
22. c1ccc2cnncc2c1  384 mM (≈ 50 mg/mL)
23. O=C(O)Cc1ccc(O)cc1  399 mM (≈ 60.7 mg/mL)
24. CCC(=O)OC  708 mM (≈ 62.4 mg/mL)
25. CNC1(c2ccccc2Cl)CCCCC1=O.Cl (configuration not stated)  729 mM
26. N#CCC#N  2010 mM (≈ 133 mg/mL)
27. COC(C)(C)CC(C)=O  2150 mM (≈ 280 mg/mL)
28. Nc1nc[nH]n1  3330 mM (≈ 280 mg/mL)
29. O=C(O)CBr  12600 mM (≈ 1750 mg/mL)
30. CN  34800 mM (≈ 1080 mg/mL)

Same assay, conditions: 25.0 °C

In order of falling log10 OH rate constant (cm³/molecule/s):
1. C=C1CCC2(C(C)C)CC12 (configuration not stated)  -9.93
2. c1cc2c3c(cccc3c1)CC2  -10.2
3. CCSC(=O)N(CC)C1CCCCC1  -10.5
4. Cc1ccc(C(C)(C)C)cc1  -10.9
5. CCCCCBr  -11.4
6. O=CC(Cl)Cl  -11.6
7. CCCC(=O)O  -11.6
8. CCOC(F)(F)C(F)F  -12.6
9. FC(F)OC(Cl)C(F)(F)F (configuration not stated)  -13.8
10. FC(F)Br  -14
11. O=CF  -14.4

Same assay, conditions: 27.0 °C

For Cc1ccc(O)c(O)c1, the log10 OH rate constant (cm³/molecule/s) was -9.81.

Same assay, conditions: 30 °C

CCOC(=O)CCl gave a solubility of 158 mM (≈ 19.4 mg/mL).
